Experimental data: patent publication US20260262643A1, “HERBICIDAL BENZOXAZINES” (FMC CORPORATION, priority 2022, published 2026)

Assays:
[1] = tested on: horseweed; assay: Test C postemergence; format: in vivo, Erigeron canadensis; details: 10 days
Method in brief: (§1)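 Visual injury ratings on a 0–100 scale (100 = complete control) were made against untreated controls 10 days after treatment in the greenhouse. Compounds, formulated with surfactant in non-phytotoxic solvent, were sprayed on soil preemergence or onto one- to two-leaf plants 2–10 cm tall postemergence.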

[2] = tested on: ducksalad; assay: Test D flooded paddy test; format: in vivo, Heteranthera limosa; details: 250 g ai/ha, applied to paddy water, visual rating after 13 to 14 days, scale 0 to 100 (0 no effect, 100 complete control)
Method in brief: (§2)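 Plants at the 2-leaf stage were grown in pots flooded to 3 cm, and compound was applied directly into the paddy water, with depth kept throughout. After 13–14 days in a greenhouse, injury was rated visually against untreated controls on a 0–100 scale (100 = complete control); a dash means not tested.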

[3] = tested on: wheat; assay: Test C postemergence; format: in vivo, Triticum aestivum; details: 125 g ai/ha, postemergence, 10 days; 0 to 100 scale, 0 no effect, 100 complete control
Method in brief: as §1

[4] = tested on: green foxtail; assay: Test C postemergence; format: in vivo, Setaria viridis; details: 10 days
Method in brief: as §1

[5] = tested on: barnyardgrass; assay: Test C preemergence; format: in vivo, Echinochloa crusgalli; details: 0 to 100 scale (0 no effect, 100 complete control); for Plant response rating, Barnyardgrass: Preemergence, 500 g ai/ha, visual rating after 10 days; for Barnyardgrass plant response rating: Test C, preemergence, 125 g ai/ha
Method in brief: as §1

[6] = tested on: rice; assay: Test D flooded paddy test; format: in vivo, Oryza sativa; details: 250 g ai/ha, applied to paddy water, visual rating after 13 to 14 days, scale 0 to 100 (0 no effect, 100 complete control)
Method in brief: as §2

[7] = tested on: oat, wild; assay: Test C postemergence; format: in vivo, Avena fatua; details: 125 g ai/ha, postemergence, 10 days; 0 to 100 scale, 0 no effect, 100 complete control
Method in brief: as §1

[8] = tested on: corn; assay: Test C postemergence; format: in vivo, Zea mays; details: 10 days
Method in brief: as §1

[9] = tested on: wheat; assay: Test C preemergence; format: in vivo, Triticum aestivum; details: preemergence, 0 to 100 scale (0 no effect, 100 complete control)
Method in brief: as §1

[10] = tested on: barnyardgrass; assay: Test C postemergence; format: in vivo, Echinochloa crusgalli; details: 10 days
Method in brief: as §1

[11] = tested on: pigweed, palmer; assay: Test C preemergence; format: in vivo, Amaranthus palmeri; details: preemergence, 0 to 100 scale (0 no effect, 100 complete control)
Method in brief: as §1

[12] = tested on: blackgrass; assay: Test C preemergence; format: in vivo, Alopecurus myosuroides; details: 0 to 100 scale (0 no effect, 100 complete control); for Plant response rating, Blackgrass: Preemergence, 500 g ai/ha, visual rating after 10 days; for Blackgrass plant response rating: Test C, preemergence, 125 g ai/ha
Method in brief: as §1

[13] = tested on: sedge, umbrella; assay: Test D flooded paddy test; format: in vivo, Cyperus difformis; details: 250 g ai/ha, applied to paddy water, visual rating after 13 to 14 days, scale 0 to 100 (0 no effect, 100 complete control)
Method in brief: as §2

[14] = tested on: ragweed; assay: Test C preemergence; format: in vivo, Ambrosia artemisiifolia; details: preemergence, 0 to 100 scale (0 no effect, 100 complete control)
Method in brief: as §1

[15] = tested on: green foxtail; assay: Test C preemergence; format: in vivo, Setaria viridis; details: preemergence, 0 to 100 scale (0 no effect, 100 complete control)
Method in brief: as §1

[16] = tested on: galium; assay: Test C postemergence; format: in vivo, Galium aparine; details: 10 days
Method in brief: as §1

[17] = tested on: ragweed; assay: Test C postemergence; format: in vivo, Ambrosia artemisiifolia; details: 125 g ai/ha, postemergence, 10 days; 0 to 100 scale, 0 no effect, 100 complete control
Method in brief: as §1

[18] = tested on: corn; assay: Test C preemergence; format: in vivo, Zea mays; details: preemergence, 0 to 100 scale (0 no effect, 100 complete control)
Method in brief: as §1

[19] = tested on: pigweed, palmer; assay: Test C postemergence; format: in vivo, Amaranthus palmeri; details: 125 g ai/ha, postemergence, 10 days; 0 to 100 scale, 0 no effect, 100 complete control
Method in brief: as §1

[20] = tested on: soybean; assay: Test C preemergence; format: in vivo, Glycine max; details: preemergence, 0 to 100 scale (0 no effect, 100 complete control)
Method in brief: as §1

[21] = tested on: kochia; assay: Test C postemergence; format: in vivo, Bassia scoparia; details: 125 g ai/ha, postemergence, 10 days; 0 to 100 scale, 0 no effect, 100 complete control
Method in brief: as §1

[22] = tested on: kochia; assay: Test C preemergence; format: in vivo, Bassia scoparia; details: preemergence, 0 to 100 scale (0 no effect, 100 complete control)
Method in brief: as §1

[23] = tested on: blackgrass; assay: Test C postemergence; format: in vivo, Alopecurus myosuroides; details: 10 days
Method in brief: as §1

[24] = tested on: oat, wild; assay: Test C preemergence; format: in vivo, Avena fatua; details: preemergence, 0 to 100 scale (0 no effect, 100 complete control)
Method in brief: as §1

[25] = tested on: soybean; assay: Test C postemergence; format: in vivo, Glycine max; details: 125 g ai/ha, postemergence, 10 days; 0 to 100 scale, 0 no effect, 100 complete control
Method in brief: as §1

[26] = tested on: ryegrass, Italian; assay: Test C postemergence; format: in vivo, Lolium multiflorum; details: 125 g ai/ha, postemergence, 10 days; 0 to 100 scale, 0 no effect, 100 complete control
Method in brief: as §1

[27] = tested on: ryegrass, Italian; assay: Test C preemergence; format: in vivo, Lolium multiflorum; details: preemergence, 0 to 100 scale (0 no effect, 100 complete control)
Method in brief: as §1

[28] = tested on: barnyardgrass; assay: Test D flooded paddy test; format: in vivo, Echinochloa crus-galli; details: 250 g ai/ha, applied to paddy water, visual rating after 13 to 14 days, scale 0 to 100 (0 no effect, 100 complete control)
Method in brief: as §2

[29] = 125 g ai/ha, postemergence, 0 to 100 scale, 0 no effect, 100 complete control
[30] = Postemergence, 500 g ai/ha, visual 0 to 100 scale (0 no effect, 100 complete control)

COC[C@H]1CN(C(=O)c2cc(-n3cnc(C4CC4)n3)ccc2C)c2cccc(Cl)c2O1 [Compound 266]
Plant response rating, Horseweed [1, 29]: 20
Plant response rating, Horseweed [1, 30]: 80
Plant response rating, Ducksalad (Flood) [2]: 75
Plant response rating, Wheat [3]: 20
Plant response rating, Foxtail, Green [4, 29]: 90
Plant response rating, Foxtail, Green [4, 30]: 90
Plant response rating, Barnyardgrass [5]: 80
Barnyardgrass plant response rating [5]: 50
Plant response rating, Rice (Flood) [6]: 15
Plant response rating, Oat, Wild [7]: 10
Plant response rating, Corn [8, 29]: 70
Plant response rating, Corn [8, 30]: 70
Wheat plant response rating ([9]; 500 g ai/ha): 70
Wheat plant response rating ([9]; Test C, 125 g ai/ha): 30
Plant response rating, Barnyardgrass [10, 29]: 70
Plant response rating, Barnyardgrass [10, 30]: 90
Pigweed, Palmer plant response rating ([11]; 500 g ai/ha): 100
Pigweed, Palmer plant response rating ([11]; Test C, 125 g ai/ha): 100
Plant response rating, Blackgrass [12]: 60
Blackgrass plant response rating [12]: 30
Plant response rating, Sedge, Umbrella (Flood) [13]: 95
Ragweed plant response rating ([14]; 500 g ai/ha): 30
Ragweed plant response rating ([14]; Test C, 125 g ai/ha): 0
Foxtail, Green plant response rating ([15]; 500 g ai/ha): 100
Foxtail, Green plant response rating ([15]; Test C, 125 g ai/ha): 100
Plant response rating, Galium [16, 29]: 100
Plant response rating, Galium [16, 30]: 100
Plant response rating, Ragweed [17]: 70
Corn plant response rating ([18]; 500 g ai/ha): 40
Corn plant response rating ([18]; Test C, 125 g ai/ha): 20
Plant response rating, Pigweed, Palmer [19]: 90
Soybean plant response rating ([20]; 500 g ai/ha): 100
Soybean plant response rating ([20]; Test C, 125 g ai/ha): 80
Plant response rating, Kochia [21]: 80
Kochia plant response rating ([22]; 500 g ai/ha): 90
Kochia plant response rating ([22]; Test C, 125 g ai/ha): 90
Plant response rating, Blackgrass [23, 29]: 50
Plant response rating, Blackgrass [23, 30]: 80
Oat, Wild plant response rating ([24]; 500 g ai/ha): 90
Oat, Wild plant response rating ([24]; Test C, 125 g ai/ha): 40
Plant response rating, Soybean [25]: 100
Plant response rating, Ryegrass, Italian [26]: 70
Ryegrass, Italian plant response rating ([27]; 500 g ai/ha): 90
Ryegrass, Italian plant response rating ([27]; Test C, 125 g ai/ha): 80
Plant response rating, Barnyardgrass (Flood) [28]: 0

COC[C@H]1CN(C(=O)c2cc(-n3cnc(C4CCC4)n3)ccc2C)c2cccc(Cl)c2O1 [Compound 267]
Plant response rating, Horseweed [1, 29]: 60
Plant response rating, Horseweed [1, 30]: 50
Plant response rating, Ducksalad (Flood) [2]: 50
Plant response rating, Wheat [3]: 20
Plant response rating, Foxtail, Green [4, 29]: 70
Plant response rating, Foxtail, Green [4, 30]: 90
Plant response rating, Barnyardgrass [5]: 80
Barnyardgrass plant response rating [5]: 60
Plant response rating, Rice (Flood) [6]: 25
Plant response rating, Oat, Wild [7]: 0
Plant response rating, Corn [8, 29]: 50
Plant response rating, Corn [8, 30]: 90
Wheat plant response rating ([9]; 500 g ai/ha): 30
Wheat plant response rating ([9]; Test C, 125 g ai/ha): 20
Plant response rating, Barnyardgrass [10, 29]: 60
Plant response rating, Barnyardgrass [10, 30]: 90
Pigweed, Palmer plant response rating ([11]; 500 g ai/ha): 100
Pigweed, Palmer plant response rating ([11]; Test C, 125 g ai/ha): 90
Plant response rating, Blackgrass [12]: 60
Blackgrass plant response rating [12]: 20
Plant response rating, Sedge, Umbrella (Flood) [13]: 98
Ragweed plant response rating ([14]; 500 g ai/ha): 60
Ragweed plant response rating ([14]; Test C, 125 g ai/ha): 40
Foxtail, Green plant response rating ([15]; 500 g ai/ha): 100
Foxtail, Green plant response rating ([15]; Test C, 125 g ai/ha): 100
Plant response rating, Galium [16, 29]: 100
Plant response rating, Galium [16, 30]: 100
Plant response rating, Ragweed [17]: 70
Corn plant response rating ([18]; 500 g ai/ha): 10
Corn plant response rating ([18]; Test C, 125 g ai/ha): 0
Plant response rating, Pigweed, Palmer [19]: 90
Soybean plant response rating ([20]; 500 g ai/ha): 90
Soybean plant response rating ([20]; Test C, 125 g ai/ha): 90
Plant response rating, Kochia [21]: 90
Kochia plant response rating ([22]; 500 g ai/ha): 90
Kochia plant response rating ([22]; Test C, 125 g ai/ha): 90
Plant response rating, Blackgrass [23, 29]: 30
Plant response rating, Blackgrass [23, 30]: 50
Oat, Wild plant response rating ([24]; 500 g ai/ha): 60
Oat, Wild plant response rating ([24]; Test C, 125 g ai/ha): 40
Plant response rating, Soybean [25]: 100
Plant response rating, Ryegrass, Italian [26]: 60
Ryegrass, Italian plant response rating ([27]; 500 g ai/ha): 90
Ryegrass, Italian plant response rating ([27]; Test C, 125 g ai/ha): 70
Plant response rating, Barnyardgrass (Flood) [28]: 35
